Where two headings read alike, the source gives them in different places.
Assays:
solubility of PMIDA = assay type: physicochemical; conditions: room temperature
Source text: The solubility of the PMIDA in the MSA and the ability of both the MSA and the PMIDA to remove acid-soluble materials of the present disclosure synergistically operate to continuously remove acid-soluble materials at deeper far-field locations than traditional acid fluids, which may become spent prior to reaching such deep areas.
In the working temperature range of the treatment fluid, as described above, the PMIDA may be solubilized in the MSA of the treatment fluids described herein. In some embodiments, the PMIDA is about 5% w/v soluble at room temperature in a solution of about 70% MSA in an aqueous base fluid, described below. In other embodiments, higher w/v concentrations of PMIDA may be prepared using varied solutions of MSA alone or in combination with an aqueous base fluid, which will undergo different dissolution amounts depending on the working temperature of the treatment fluid. Each of these values is critical to the embodiments described herein and may depend on a number of factors including, but not limited to, the working temperature of the treatment fluid (e.g., the temperature or temperature range of the subterranean formation being treated), the amount of MSA in the treatment fluid relative to the PMIDA, the amount of PMIDA in the treatment fluid relative to the MSA, and the like.

[1] = 25° C.; cited from earlier work
[2] = cited from earlier work

| Molecule | soluble in a solution of about 70% MSA in an aqueous base fluid (solubility of PMIDA) | solubility in water [1] [µg/mL] | pKa ([2]; 25° C. in dimethyl sulfoxide) | pKa ([2]; 25° C. in water) |
| --- | --- | --- | --- | --- |
| O=C(O)CN(CC(=O)O)CP(=O)(O)O [PMIDA, N-(phosphonomethyl)iminodiacetic acid] | about 5 % w/v | < 500 |  |  |
| methanesulfonic acid [MSA] |  |  | about 1.6 | −1.9 |

— patent US9745506B2, “Treatment fluids for use in removing acid-soluble materials in subterranean formations” (Halliburton Energy Services, Inc., priority 2015, dated 2017)
